Measurements from patent US7892354B2, “Process for the parallel detection of crystalline forms of molecular solids” (Solvias AG, priority 2003, dated 2011).
Counter-ions that a name gives are not always drawn.

Legend:
[1] = Parallel phase equilibrium experiments in suspensions of 32 solvents and solvent mixtures, Raman spectra grouped into classes; format: physicochemical; conditions: 64 experiments, 32 solvents/solvent mixtures; for number of different classes of Raman spectra (ideally corresponding to different solid forms of sertraline HCl): 48 hours shaking, temperature cycled between 18° C. and 28° C., similarity factor 0.5; for occurrence of form II among the solid forms obtained: 48 hours, 18° C. to 28° C., verified against reference spectra, HCl
Method: A reference experiment with the stable form I as starting material is designed in such a way that 64 experiments are carried out for establishing the phase equilibrium in suspensions of 32 different solvents and solvent mixtures. For this purpose, 32 of the vessels in a 96-well quartz microtitre plate are each filled with about 5 mg of sertraline HCl form 1, and 100 microlitres of the corresponding solvent are then introduced into each vessel in accordance with the plan below, and the plate is closed with seals.
The microtitre plate is then shaken on a mechanical shaker (Eppendorf, Thermomixer Comfort) for 48 hours, the temperature of the mechanical shaker being changed cydically between 18° C. and 28° C. A cycle corresponds to one hour. The shaking frequency is 500 per minute. After a time of 48 hours for establishing equilibrium, the microtitre plate is removed from the mechanical shaker and the solid in each of the occupied vessels is investigated directly in the suspension using a Raman microscope (Renishaw Raman microscope system RM 1000). One or two Raman spectra are recorded in each vessel. The solvents in each vessel are then evaporated with the aid of a seal system having flow-through channels according to WO 03/026797 under nitrogen, a flow rate of about 0.03 litre/hour being established. Altogether, 80 Raman spectra are recorded in 64 experiments (32 directly from the suspension and 32 from the dried suspension).
The measured Raman spectra are divided into different classes of spectra on the basis of their differences. A separate evaluation programme which carries out an automatic comparison of measured spectra on the basis of the wave numbers of emission maxima in the Raman spectrum and generates a classification is used for this purpose. A distinguishing criterion is a similarity factor which is determined by visual assessment of selected, individual spectra.
Similarly to the reference example described above, 64 experiments are carried out in 32 different solvents and solvent mixtures in 32 vessels of a 96-well microtitre plate. For this purpose, each of the 32 vessels is occupied with 3 mg of the amorphous form. 100 microlitres of solvent according to the plan given in the comparative example are then filled into each of the 32 vessels, and the plate is closed with seals. The microtitre plate is then shaken on a mechanical shaker (Eppendorf, Thermomixer Comfort), the temperature of the mechanical shaker being changed cyclically between 18° C. and 28° C. A cycle corresponds to one hour, and the shaking frequency is 500 per minute. After a time of 48 hours for establishing the equilibrium, the microtitre plate is removed from the mechanical shaker and the solid in each of the occupied vessels is investigated directly in the suspension using a Raman microscope. One or two Raman spectra are recorded in each vessel. The solvents in each vessel are then evaporated with the aid of a seal system having flow-through channels according to WO 03/026797 under nitrogen, a flow rate of about 0.03 litre per hour being established. Altogether, 92 Raman spectra are recorded in 64 experiments (32 directly from the suspension and 32 from the dried suspension).

[2] = Morisette et al., Advanced Drug Delivery Reviews 56 (2004) 275-300; cited from earlier work

number of different classes of Raman spectra (ideally corresponding to different solid forms of sertraline HCl) [1] | SMILES | occurrence of form II among the solid forms obtained [1] | number of different crystal forms mentioned in the literature [2]
25 | CN[C@H]1CC[C@@H](c2ccc(Cl)c(Cl)c2)c2ccccc21 [amorphous form of sertraline HCl, sertraline HCl] | both the thermodynamically stable form I and the important form II are contained in these classes | 
11 | CN[C@H]1CC[C@@H](c2ccc(Cl)c(Cl)c2)c2ccccc21 [sertraline HCl form I, sertraline HCl] | the important form II did not form | 
16 | CN[C@H]1CC[C@@H](c2ccc(Cl)c(Cl)c2)c2ccccc21 [isopropanol solvate of sertraline HCl, sertraline HCl] |  | 
 | CN[C@H]1CC[C@@H](c2ccc(Cl)c(Cl)c2)c2ccccc21 [sertraline HCl] |  | about 27
